Patent US20080045595A1, “METHOD OF TREATING CANCER” (Myriad Genetics, Incorporated, priority 2004, published 2008)
pIC50: −log10 of the molar value. Entries after “also recorded” stand apart in the source; their conditions may differ.

Key:
[1] = tested on: MCF-7, a human breast cancer cell line; experiment: Cytotoxicity (ATPLite cell growth inhibition), Example 1, MCF-7 cells; type: cell-based; conditions: MCF7a, 72 hours exposure, ATPLite assay, mean ± standard deviation, read-out: IC50 (concentration that inhibited growth by 50%)
Procedure: (§1) A. MCF-7, a human breast cancer cell line was obtained from ATCC (Catalog number: HTB-22)
(§2) MCF-7 cells were supplemented additionally with 10 μg/ml recombinant human insulin.
(§3) All compounds were tested triplicate.

[2] = tested on: NCI/ADR-RES, a multi drug resistant cell line over-expressing MDR-1; experiment: Cytotoxicity (ATPLite cell growth inhibition), Example 1, MDR-1 over-expressing cells; type: cell-based; conditions: Homo sapiens, MDR1; NCI/ADR-RES cells (MDR-1 over-expressing), 72 hours exposure, ATPLite assay, mean ± standard deviation; read-out: IC50 (concentration that inhibited growth by 50%)
Procedure: B. NCl/ADR-RES, a multi drug resistant cell line over-expressing MDR-1 was obtained from NCl, Frederick, Md. This cell line has previously been called MCF-7/ADR by NCl.
as §2, §3

[3] = tested on: MCF-7, a human breast cancer cell line; experiment: Cytotoxicity (ATPLite cell growth inhibition), Example 2, MCF-7 cells; type: cell-based; conditions: MCF7a, 72 hours exposure, ATPLite assay, mean ± standard deviation, read-out: IC50 (concentration that inhibited growth by 50%)
Procedure: as §1
(§4) All compounds were tested in triplicate.

[4] = tested on: MCF-7/VP, a multi drug resistant cell line over-expressing MRP-1; experiment: Cytotoxicity (ATPLite cell growth inhibition), Example 2, MRP-1 over-expressing cells; type: cell-based; conditions: Homo sapiens, MCF7-VP; MCF-7/VP cells (MRP-1 over-expressing), 72 hours exposure, ATPLite assay, mean ± standard deviation; read-out: IC50 (concentration that inhibited growth by 50%)
Source text: Over-expression of the product of the ABCC1 gene encoding the multidrug resistance associated protein 1 confers resistance to a wide variety of agents including etoposide, methotrexate, cisplatins and anthracyclines. […] MCF-7/VP cells, a MCF-7 derivative selected for resistance to etoposide, over-express the MRP-1 protein (1).
B. MCF-7/VP, a multi drug resistant cell line over-expressing MRP-1 was obtained from Dr. Erasmus Schneider, Wadsworth Center, NYS Dept. of Health, Albany, N.Y. 12237.
as §4

[5] = tested on: MCF-7, a human breast cancer cell line; experiment: Cytotoxicity (ATPLite cell growth inhibition), Example 3, MCF-7 cells; type: cell-based; conditions: MCF7a, 72 hours exposure, ATPLite assay, mean ± standard deviation, read-out: IC50 (concentration that inhibited growth by 50%)
Procedure: as §1, §4

Oral bioavailability = type: in vivo; conditions: oral administration
[6] = tested on: MCF-7/MX, a multi drug resistant cell line over-expressing BCRP; experiment: Cytotoxicity (ATPLite cell growth inhibition), Example 3, BCRP over-expressing cells; conditions: for pIC50: Homo sapiens, MCF7/MX, 72 h, read-out: IC50 (concentration that inhibited growth by 50%); for Difference in cytotoxic activity between normal (MCF-7) and BCRP over-expressing (MCF-7/MX) cell line: ratio of IC50 MCF-7/MX versus MCF-7
Procedure: Methods: The tumor cells were plated at 5,000 cells/well in a 96 well tissue culture plate and grown for 24 hours at 37° C. The cells were then exposed to various concentrations of 5-chloro-N-[2-(4-chloro-naphtalen-1-yloxy)-5-trifluoromethyl-phenyl]-2-hydroxy-benzamide, Camptothecin or Epirubicin for 72 hours and the inhibition of cell growth due to exposure to the drug was determined using the ATPLite assay. Data are expressed as the concentration that inhibited growth by 50%.
Stock solutions of compounds dissolved in DMSO were used to prepare compound dilutions for activity determination. 5-chloro-N-[2-(4-chloro-naphtalen-1-yloxy)-5-trifluoromethyl-phenyl]-2-hydroxy-benzamide was tested at a final concentration of 100 μM, 33.3 μM, 11.1 μM, 3.7 μM, 1.23 μM, 0.4 μM and 0.13 μM for both cell lines. CPT-11 was tested at 1 μM, 0.33 μM, 0.1 μM, 0.04 μM, 0.012 μM, 0.004 μM and 0.001 μM in MCF-7 cells and at 10 μM, 3.3 μM, 1.1 μM, 0.37 μM, 0.12 μM, 0.04 μM and 0.013 μM in MCF-7/MX cells. Epirubicin was tested at 10 μM, 3.3 μM, 1.1 μM, 0.37 μM, 0.12 μM, 0.04 μM and 0.013 μM for MCF-7 cells and at 100 μM, 33.3 μM, 11.1 μM, 3.7 μM, 1.23 μM, 0.4 μM and 0.13 μM for MCF-7/MX cells. The final concentration of DMSO in all cases was adjusted to 0.2% v/v.
Both cell lines were cultured in RPMI-1640 supplemented with 10% fetal bovine serum, 2 mM Glutamax, 1 mM sodium pyruvate, 0.1 mM non-essential amino acids, 10 μg/ml recombinant human insulin and 10 mM Hepes. All cell lines were grown at 37° C. in a humidified 5% CO2 atmosphere.
For testing the effect of compounds on cell growth, exponentially growing cells were harvested by trypsinization and plated in fresh growth medium at 50,000 cells/ml, one hundred microlitres cell suspension per well, in a 96-well flat-bottomed microtiter plate (Corning, Costar 3595). Twenty-four hours later, culture medium was replaced with fresh growth medium and varying concentrations of test compound.
For both cell lines, cells were incubated with compound for three days and cellular viability was determined at the end of the incubation by measuring intracellular ATP with ATPLite assay system. All compounds were tested in triplicate.
Effect of compounds on cell viability was calculated by comparing the ATP levels of cells exposed to test compound with those of cells exposed to DMSO. A semi-log plot of relative ATP levels versus compound concentration was used to calculate the compound concentration required to inhibit growth by 50% (IC50). Data was analyzed by Prism software (GraphPad; San Diego, Calif.) by fitting it to a sigmoidal dose response curve. The IC50 values obtained for individual data sets were combined to obtain a mean IC50 and standard deviation of the mean.

Structure (SMILES)	pIC50 [1]	pIC50 [2]	pIC50 [3]	pIC50 [4]	pIC50 [5]	Bioavailability when administered orally (Oral bioavailability)	pIC50 [6]	Difference in cytotoxic activity between normal (MCF-7) and BCRP over-expressing (MCF-7/MX) cell line [6]
O=C(Nc1cc(C(F)(F)F)ccc1Oc1ccc(Cl)c2ccccc12)c1cc(Cl)ccc1O [5-chloro-N-[2-(4-chloro-naphtalen-1-yloxy)-5-trifluoromethyl-phenyl]-2-hydroxy-benzamide]	6.13	6.12	6.23	6.10	6.13	low bioavailability	5.83	two-fold; also recorded: twofold
CC[C@@]1(O)C(=O)OCc2c1cc1n(c2=O)Cc2cc3ccccc3nc2-1 [Camptothecin ®]					7.66		6.76	one-eighth
COc1cccc2c1C(=O)c1c(O)c3c(c(O)c1C2=O)C[C@@](O)(C(=O)CO)C[C@@H]3O[C@H]1C[C@H](N)[C@@H](O)[C@H](C)O1 [Epirubicin]			6.82	6.02	6.82		5.95	one-seventh
CC(=O)O[C@@]12CO[C@@H]1C[C@H](O)[C@@]1(C)C(=O)[C@H](O)C3=C(C)[C@@H](OC(=O)[C@H](O)[C@@H](NC(=O)OC(C)(C)C)c4ccccc4)C[C@@](O)([C@@H](OC(=O)c4ccccc4)[C@H]21)C3(C)C [Taxotere ®]	9.30	6.37						
CC[C@]1(O)C[C@@H]2CN(CCc3c([nH]c4ccccc34)[C@@](C(=O)OC)(c3cc4c(cc3OC)N(C)[C@H]3[C@@](O)(C(=O)OC)[C@H](OC(C)=O)[C@]5(CC)C=CCN6CC[C@]43[C@@H]65)C2)C1 [Vinblastine]	9.22	6.25						
